Assay results as given in patent US8552208B2, “Analogs of tetramic acid” (University of Tennesseee Research Foundation, priority 2007, dated 2013).
≈ marks a conversion by molar mass, not a printed value. Read-outs that look alike come from different tables or passages of the source.

Assays:
[1] = tested on: Mycobacterium tuberculosis H37 Rv; assay: Antibacterial activity assay (MIC, broth dilution); assay type: cell-based; conditions: H37RV, 168 h; Mycobacterium tuberculosis H37 Rv; […]; read-out: MIC, TB
[2] = tested on: Bacillus anthracis Sterne 34F2; assay: microbe, parasite or virus in culture; assay type: cell-based; conditions: STERNE34F2, read-out: MIC, BA
[3] = tested on: Bacillus subtilis ATCC 23857; assay: Antibacterial activity assay (MIC, broth dilution); assay type: cell-based; conditions: ATCC23857; Bacillus subtilis ATCC 23857; read-out: MIC, BS
[4] = tested on: Streptococcus pneumoniae DAW30EC; assay: Antibacterial activity assay (MIC, broth dilution); assay type: cell-based; conditions: Streptococcus pneumoniae DAW30EC; read-out: MIC, SPn
[5] = tested on: Enterococcus faecalis ATCC 33186; assay: Antibacterial activity assay (MIC, broth dilution); assay type: cell-based; conditions: ATCC33186; Enterococcus faecalis ATCC 33186; read-out: MIC, EF
[6] = tested on: Methicillin Resistant Staphylococcus aureus ATCC 33591; assay: Antibacterial activity assay (MIC, broth dilution); assay type: cell-based; conditions: ATCC 33591 / MRSA, read-out: MIC, MRSA
[7] = tested on: Methicillin sensitive Staphylococcus aureus 8325 ATCC 35556; assay: Antibacterial activity assay (MIC, broth dilution); assay type: cell-based; conditions: ATCC 35556 / MSSA; Methicillin sensitive Staphylococcus aureus 8325 ATCC 35556; read-out: MIC, MSSA
[8] = tested on: Propionibacterium acnes ATCC 6919; assay: Antibacterial activity assay (MIC, broth dilution); assay type: cell-based; conditions: Cutibacterium acnes, ATCC6919; Propionibacterium acnes ATCC 6919; read-out: MIC, PA
[9] = tested on: Streptococcus pyogenes ATCC 700294; assay: Antibacterial activity assay (MIC, broth dilution); assay type: cell-based; conditions: ATCC700294; Streptococcus pyogenes ATCC 700294; read-out: MIC, SP
Cytotoxicity assay (MTT) = assay type: cell-based, monkey; conditions: monkey, Vero cells, 72 hours, MTT, read-out: IC50 (Cytotoxicity): Concentration which reduces viability of Vero kidney cells by 50%
Protocol: (§1) Cytotoxicity assays of drugs of Formula I of Example 3 and of Formula II of Example 5 were performed using the Vero monkey kidney cell line (ATCC, CCL-81). Vero cells were grown in tissue culture flasks in Dulbecco's Modified Eagle's Medium (ATCC) supplemented with 10% fetal bovine serum and maintained in a humidified incubator (37° C., 5% CO2). Cells were removed with a cell scraper, collected by centrifugation and then suspended in fresh medium at ˜10^6 cells/mL. The cell suspensions were dispensed into 96-well microtiter plates (100 μl/well) and incubated for 18 hours at 37° C. before being used for cytotoxicity assays. Test compounds were subsequently added at concentrations ranging from 400-0.024 μg/mL and 0.1% vol/vol of Triton-X 100, which causes 100% death of cells, was included as a control. After incubating cells and compounds for 72 hours in humid air (37° C., 5% CO2) the cytopathic effects of compounds were determined using the MTT Cell Proliferation Assay (ATCC, Cat No. 30-1010K). The MTT solution reagent (10 μl) was added to each well and plates incubated at 37° C. until sufficient purple color development occurred in cells (3 hours). After detergent cell lysis, the purple formazan product was measured at 570 nm in a Synergy HT Biotek microplate reader. IC50 data was obtained from dose response curves plotted from percentage activity versus log10 concentration using Graphpad prism 5.

[10] = tested on: Vero monkey kidney cell line (ATCC, CCL-81); assay: Cytotoxicity assay (MTT); assay type: cell-based
Protocol: as §1

[11] = IC50 divided by MIC against S. aureus 8325
[12] = Vero monkey kidney cells (ATCC CCL-81)

Row | SMILES | MIC [1] | MIC [2] | MIC [3] | MIC [4] | MIC [5] | MIC [6] | MIC [7] | MIC [8] | MIC [9] | IC50 at 72 h (Cytotoxicity assay (MTT)) | IC50/MIC = Selectivity (therapeutic) index [10, 11] | IC50 at 72 h (Cytotoxicity assay (MTT); [12]) | IC50/MIC = Selectivity (therapeutic) index ([10]; IC50 divided by MIC against E. faecalis (12p only))
1 | CCC(C)[C@H]1C(=O)/C(=C(\C)O)C(=O)N1Cc1ccccc1 (stereo partly drawn) [Compound 13a, (S,Z)-1-benzyl-5-sec-butyl-3-(1-hydroxyethylidene)pyrrolidine-2,4-dione] | 50 µg/mL (≈ 174 µM) | 3.12 µg/mL (≈ 10.9 µM) | 25 µg/mL (≈ 87 µM) | 50 µg/mL (≈ 174 µM) | 6.25 µg/mL (≈ 21.7 µM) | 6.25 µg/mL (≈ 21.7 µM) | 6.25 µg/mL (≈ 21.7 µM) | 6.25 µg/mL (≈ 21.7 µM) | > 200 µg/mL | 26.3 µg/mL | 4.2 | – | –
2 | CCCCCCCCCCN1C(=O)/C(=C(/C)O)C(=O)[C@H]1CC(C)C [Compound 13o, (R,Z)-1-decyl-3-(1-hydroxyethylidene)-5-isobutylpyrrolidine-2,4-dione] | 25 µg/mL (≈ 74.1 µM) | 0.8 µg/mL (≈ 2.37 µM) | 0.8 µg/mL (≈ 2.37 µM) | 6.25 µg/mL (≈ 18.5 µM) | 1.6 µg/mL (≈ 4.74 µM) | 0.8 µg/mL (≈ 2.37 µM) | 0.4 µg/mL (≈ 1.19 µM) | 0.8 µg/mL (≈ 2.37 µM) | 50 µg/mL (≈ 148 µM) | – | 15.8 | 6.3 µg/mL | –
3 | CCN1C(=O)/C(=C(/C)O)C(=O)[C@@H]1Cc1ccccc1 [Compound 13h, (S,Z)-5-benzyl-1-ethyl-3-(1-hydroxyethylidene)pyrrolidine-2,4-dione] | > 200 µg/mL | 50 µg/mL (≈ 193 µM) | > 200 µg/mL | > 200 µg/mL | > 200 µg/mL | > 200 µg/mL | 200 µg/mL (≈ 771 µM) | 100 µg/mL (≈ 386 µM) | > 200 µg/mL | – | – | – | –
4 | CC(C)C[C@@H]1C(O)=C(C#N)C(=O)N1Cc1ccc(F)cc1 [Compound 12f, (R)-1-(4-fluorobenzyl)-4-hydroxy-5-isobutyl-2-oxo-2,5-dihydro-1H-pyrrole-3-carbonitrile] | > 200 µg/mL | > 200 µg/mL | > 200 µg/mL | > 200 µg/mL | > 200 µg/mL | > 200 µg/mL | > 200 µg/mL | > 200 µg/mL | > 200 µg/mL | – | – | – | –
5 | COc1cccc(CN2C(=O)/C(=C(/C)O)C(=O)[C@@H]2CC(C)C)c1 [Compound 13d, (S,Z)-3-(1-hydroxyethylidene)-5-isobutyl-1-(3-methoxybenzyl)pyrrolidine-2,4-dione] | 100 µg/mL (≈ 315 µM) | 25 µg/mL (≈ 78.8 µM) | 25 µg/mL (≈ 78.8 µM) | 50 µg/mL (≈ 158 µM) | 100 µg/mL (≈ 315 µM) | 25 µg/mL (≈ 78.8 µM) | 12.5 µg/mL (≈ 39.4 µM) | 12.5 µg/mL (≈ 39.4 µM) | 200 µg/mL (≈ 630 µM) | 40 µg/mL | 3.2 | – | –
6 | CC(C)C[C@H]1C(O)=C(C#N)C(=O)N1Cc1ccc(F)cc1 [Compound 12e, (S)-1-(4-fluorobenzyl)-4-hydroxy-5-isobutyl-2-oxo-2,5-dihydro-1H-pyrrole-3-carbonitrile] | > 200 µg/mL | > 200 µg/mL | > 200 µg/mL | > 200 µg/mL | > 200 µg/mL | > 200 µg/mL | > 200 µg/mL | > 200 µg/mL | > 200 µg/mL | – | – | – | –
7 | N#CC1=C(O)[C@H](Cc2ccccc2)N(Cc2ccccc2)C1=O [Compound 12c, (S)-1,5-dibenzyl-4-hydroxy-2-oxo-2,5-dihydro-1H-pyrrole-3-carbonitrile] | > 200 µg/mL | > 200 µg/mL | > 200 µg/mL | > 200 µg/mL | > 200 µg/mL | > 200 µg/mL | > 200 µg/mL | > 200 µg/mL | > 200 µg/mL | – | – | – | –
8 | CCC(C)[C@H]1C(O)=C(C#N)C(=O)N1Cc1ccco1 (stereo partly drawn) [Compound 12p, (S)-5-sec-butyl-1-(furan-2-ylmethyl)-4-hydroxy-2-oxo-2,5-dihydro-1H-pyrrole-3-carbonitrile] | > 200 µg/mL | 3.12 µg/mL (≈ 12 µM) | 25 µg/mL (≈ 96 µM) | 50 µg/mL (≈ 192 µM) | 3.12 µg/mL (≈ 12 µM) | > 200 µg/mL | > 200 µg/mL | 12.5 µg/mL (≈ 48 µM) | > 200 µg/mL | 6400 µg/mL | – | – | 2049.7
9 | C/C(O)=C1\C(=O)[C@@H](Cc2ccccc2)N(Cc2ccccc2)C1=O [Compound 13g, (R,Z)-1,5-dibenzyl-3-(1-hydroxyethylidene)pyrrolidine-2,4-dione] | > 200 µg/mL | 25 µg/mL (≈ 77.8 µM) | 25 µg/mL (≈ 77.8 µM) | 50 µg/mL (≈ 156 µM) | 100 µg/mL (≈ 311 µM) | 25 µg/mL (≈ 77.8 µM) | 25 µg/mL (≈ 77.8 µM) | 25 µg/mL (≈ 77.8 µM) | 200 µg/mL (≈ 622 µM) | – | 3.2 | 80.6 µg/mL | –
10 | CCC(C)[C@H]1C(O)=C(C#N)C(=O)N1Cc1ccccc1 (stereo partly drawn) [Compound 12a, (S)-1-benzyl-5-sec-butyl-4-hydroxy-2-oxo-2,5-dihydro-1H-pyrrole-3-carbonitrile] | > 200 µg/mL | > 200 µg/mL | > 200 µg/mL | > 200 µg/mL | > 200 µg/mL | > 200 µg/mL | > 200 µg/mL | > 200 µg/mL | > 200 µg/mL | – | – | – | –
11 | N#CC1=C(O)[C@@H](Cc2ccccc2)N(Cc2ccccc2)C1=O [Compound 12g, (R)-1,5-dibenzyl-4-hydroxy-2-oxo-2,5-dihydro-1H-pyrrole-3-carbonitrile] | > 200 µg/mL | > 200 µg/mL | > 200 µg/mL | > 200 µg/mL | > 200 µg/mL | > 200 µg/mL | > 200 µg/mL | > 200 µg/mL | > 200 µg/mL | – | – | – | –
12 | C/C(O)=C1\C(=O)[C@H](CC(C)C)N(Cc2ccc(F)cc2)C1=O [Compound 13e, (S,Z)-1-(4-fluorobenzyl)-3-(1-hydroxyethylidene)-5-isobutylpyrrolidine-2,4-dione] | 100 µg/mL (≈ 327 µM) | 12.5 µg/mL (≈ 40.9 µM) | 25 µg/mL (≈ 81.9 µM) | 50 µg/mL (≈ 164 µM) | 50 µg/mL (≈ 164 µM) | 25 µg/mL (≈ 81.9 µM) | 12.5 µg/mL (≈ 40.9 µM) | 6.25 µg/mL (≈ 20.5 µM) | 100 µg/mL (≈ 327 µM) | 27.8 µg/mL | 2.2 | – | –
13 | COc1cccc(CN2C(=O)C(C#N)=C(O)[C@@H]2CC(C)C)c1 [Compound 12d, (S)-4-hydroxy-5-isobutyl-1-(3-methoxybenzyl)-2-oxo-2,5-dihydro-1H-pyrrole-3-carbonitrile] | > 200 µg/mL | > 200 µg/mL | > 200 µg/mL | > 200 µg/mL | > 200 µg/mL | > 200 µg/mL | > 200 µg/mL | > 200 µg/mL | > 200 µg/mL | – | – | – | –
14 | C/C(O)=C1\C(=O)[C@H](Cc2ccccc2)N(Cc2ccccc2)C1=O [Compound 13c, (S,Z)-1,5-dibenzyl-3-(1-hydroxyethylidene)pyrrolidine-2,4-dione] | > 200 µg/mL | 25 µg/mL (≈ 77.8 µM) | 25 µg/mL (≈ 77.8 µM) | 100 µg/mL (≈ 311 µM) | 100 µg/mL (≈ 311 µM) | 25 µg/mL (≈ 77.8 µM) | 12.5 µg/mL (≈ 38.9 µM) | 12.5 µg/mL (≈ 38.9 µM) | > 200 µg/mL | – | 6.1 | 75.7 µg/mL | –
15 | CCCCCCCCCCN1C(=O)C(C#N)=C(O)[C@@H]1CC(C)C [Compound 12b, (S)-1-decyl-4-hydroxy-5-isobutyl-2-oxo-2,5-dihydro-1H-pyrrole-3-carbonitrile] | 3.12 µg/mL (≈ 9.74 µM) | 25 µg/mL (≈ 78 µM) | 50 µg/mL (≈ 156 µM) | 100 µg/mL (≈ 312 µM) | 25 µg/mL (≈ 78 µM) | 25 µg/mL (≈ 78 µM) | 25 µg/mL (≈ 78 µM) | 12.5 µg/mL (≈ 39 µM) | > 200 µg/mL | 152 µg/mL | 6.1 | – | –
16 | C/C(O)=C1\C(=O)[C@@H](CC(C)C)N(Cc2ccc(F)cc2)C1=O [Compound 13f, (R,Z)-1-(4-fluorobenzyl)-3-(1-hydroxyethylidene)-5-isobutylpyrrolidine-2,4-dione] | 100 µg/mL (≈ 327 µM) | 12.5 µg/mL (≈ 40.9 µM) | 12.5 µg/mL (≈ 40.9 µM) | 25 µg/mL (≈ 81.9 µM) | 50 µg/mL (≈ 164 µM) | 12.5 µg/mL (≈ 40.9 µM) | 12.5 µg/mL (≈ 40.9 µM) | 12.5 µg/mL (≈ 40.9 µM) | 100 µg/mL (≈ 327 µM) | 35.3 µg/mL | 2.8 | – | –
